Measured values from patent US6770287B1, “Biocidal cellulosic material” (The Regents of the University of California, priority 2000, dated 2004).
Marks after values point to notes of the source that are not given here.

System: E. coli enhanced green fluorescent protein (B)GFP 0157:H7
Test: Biocidal wood blocks: CFU recovered after contact
Type: cell-based
Details: for average percent reduction of bacterium as compared to the untreated control blocks: estimated from the data of all trials
Description: The blocks were prepared by dividing large cutting boards into squares with sides measuring 5 cm using a table saw. The blocks were of the face-grain configuration. The edges were then smoothened with 120 or 180 grit sandpaper as needed to achieve uniformity among all blocks. The blocks were visually inspected to be the correct size and any blocks that appeared to deviate from the standard were remeasured and discarded if they were an incorrect size.
The blocks (Bemis Manufacturing Company, 300 Mill Street, PO Box 901, Sheboygan Falls, Wis., 53085-0901) were labeled based on concentration and ascending numbers. The blocks were immersed in solutions containing the following two formulations, respectively: […]
And the blocks were taken out from the solutions after they are completely soaked by the chemicals, and then dried at 80° C. in an oven for a prolonged time till they are completely dry. The curing of the blocks was conducted at 150° C. for over 30 minutes.
A bleach process is necessary to activate the biocide. A bleach solution containing about 0.05% sodium hypochlorite was prepared from a commercial Clorox liquid (containing 5.25% sodium hypochlorite). The volume of the solution was based on a liquid to wood mass ratio of 50:1. The blocks were scrubbed lightly on a sponge saturated with the chlorine solution from the bath for five strokes. The blocks were placed face down in the diluted bleach solution for 15 minutes. After 15 minutes the blocks were transferred directly to a cooling rack (to allow even drying) in a laminar flow hood that had been previously sterilized with a 70% ethanol solution and left with the exhaust turned on. The blocks were then left in the laminar flow hood until completely dry (at least five hours).
1. A sample of E. coli enhanced green fluorescent protein (B)GFP 0157:H7 was inoculated into a test tube of LB broth with 0.01% ampicillin and 0.01% novobiocin antibiotics (to be referred to as LBAN). The test tube was labeled and then incubated at 37° C. for 24 hours. The sample was then serial diluted with LBAN broth. 0.1 mL of the broth was then inoculated onto LB or Brain Heart Infusion (BHI) agar, also with ampicillin and 0.01% novobiocin antibiotics. The concentrations of 10^−7, 10^−6, and 10^−5 were spread plated. These plates were allowed to incubate for 24 hours at 37° C. The CFU/mL was determined by averaging the colonies from the plates of the most easily countable concentration.
7. The timer was started and the inoculum was spread on the blocks at the rate of one per 30 seconds.
8. 0.2 mL of the inoculum was spread onto the blocks using the pipet tip and pipetter. A new pipet tip was used for each block.
9. After the correct (variable) contact time, the blocks were carefully pressed on the agar surface for 20 seconds and then the plates were inverted and placed in an incubator at 37° C. for 24 hours.
10. The colonies were counted for each plate and thus the kills were determined for each concentration.

[1] = trial A, 5% biocide, inoculum 2.5 × 10^5, contact time 5 minutes
[2] = trial A, 10% biocide, inoculum 2.5 × 10^5, contact time 5 minutes
[3] = trial B, 5% biocide, inoculum 1.8 × 10^5, contact time 5 minutes
[4] = trial B, 10% biocide, inoculum 1.8 × 10^5, contact time 5 minutes
[5] = trial C, 5% biocide, inoculum 1.4 × 10^5, contact time 5 minutes
[6] = trial C, 10% biocide, inoculum 1.4 × 10^5, contact time 5 minutes
[7] = trial D, 5% biocide, inoculum 1.4 × 10^5, contact time 5 minutes
[8] = trial D, 10% biocide, inoculum 1.4 × 10^5, contact time 5 minutes
[9] = trial E, 5% biocide, inoculum 1.0 × 10^4, contact time 5 minutes
[10] = trial E, 10% biocide, inoculum 1.0 × 10^4, contact time 5 minutes
[11] = trial F, 5% biocide, inoculum 1.0 × 10^4, contact time 5 minutes
[12] = trial F, 10% biocide, inoculum 1.0 × 10^4, contact time 5 minutes
[13] = trial G, 5% biocide, inoculum 3.3 × 10^4, contact time 2.5 minutes
[14] = trial G, 10% biocide, inoculum 3.3 × 10^4, contact time 2.5 minutes
[15] = trial H, 5% biocide, inoculum 3.3 × 10^4, contact time 5 minutes
[16] = trial H, 10% biocide, inoculum 3.3 × 10^4, contact time 5 minutes
[17] = trial I, 5% biocide, inoculum 1.0 × 10^4, contact time 5 minutes
[18] = trial I, 10% biocide, inoculum 1.0 × 10^4, contact time 5 minutes
[19] = trial J, 1st line, 5% biocide, inoculum 1.37 × 10^5, contact time 5 minutes
[20] = trial J, 1st line, 10% biocide, inoculum 1.37 × 10^5, contact time 5 minutes
[21] = trial J, 2nd line, 5% biocide, inoculum 1.37 × 10^5, contact time 5 minutes
[22] = trial J, 2nd line, 10% biocide, inoculum 1.37 × 10^5, contact time 5 minutes
[23] = trial K, New Blocks, 5% biocide, inoculum 1.2 × 10^4, contact time 5 minutes
[24] = trial K, New Blocks, 10% biocide, inoculum 1.2 × 10^4, contact time 5 minutes
[25] = trial K, Old Blocks, 5% biocide, inoculum 1.2 × 10^4, contact time 5 minutes
[26] = trial K, Old Blocks, 10% biocide, inoculum 1.2 × 10^4, contact time 5 minutes
[27] = trial L, New Blocks, 5% biocide, inoculum 8.0 × 10^1, contact time 5 minutes
[28] = trial L, New Blocks, 10% biocide, inoculum 8.0 × 10^1, contact time 5 minutes
[29] = trial L, Old Blocks, 5% biocide, inoculum 8.0 × 10^1, contact time 5 minutes
[30] = trial L, Old Blocks, 10% biocide, inoculum 8.0 × 10^1, contact time 5 minutes
[31] = trial M, New Blocks, 5% biocide, inoculum 6.45 × 10^3, contact time 10 minutes
[32] = trial M, New Blocks, 10% biocide, inoculum 6.45 × 10^3, contact time 10 minutes
[33] = trial M, Old Blocks, 5% biocide, inoculum 6.45 × 10^3, contact time 10 minutes
[34] = trial M, Old Blocks, 10% biocide, inoculum 6.45 × 10^3, contact time 10 minutes
[35] = trial N, New Blocks, 5% biocide, inoculum 6.6 × 10^4 CFU/mL, contact time 10 minutes
[36] = trial N, New Blocks, 10% biocide, inoculum 6.6 × 10^4 CFU/mL, contact time 10 minutes
[37] = trial N, Old Blocks, 5% biocide, inoculum 6.6 × 10^4 CFU/mL, contact time 10 minutes
[38] = trial N, Old Blocks, 10% biocide, inoculum 6.6 × 10^4 CFU/mL, contact time 10 minutes

CC1(C)C(=O)N(CO)C(=O)N1CO [Anti-2, 1,3-dimethylol-5,5-dimethylhydantoin]
average percent reduction of bacterium as compared to the untreated control blocks (5% blocks): about 86%
average percent reduction of bacterium as compared to the untreated control blocks (10% concentration blocks): 91%
means CFU/block ± standard deviation [1]: 125.3 ± 74.1 CFU/block
percentage reduction compared to control [1]: (85.0%)**
means CFU/block ± standard deviation [2]: 166.3 ± 132.2 CFU/block
percentage reduction compared to control [2]: (81.2%)**
means CFU/block ± standard deviation [3]: 11.6 ± 11.4 CFU/block
percentage reduction compared to control [3]: (97.6%)
means CFU/block ± standard deviation [4]: 26.3 ± 27.6 CFU/block
percentage reduction compared to control [4]: (94.5%)
means CFU/block ± standard deviation [5]: 65 ± 23.5 CFU/block
percentage reduction compared to control [5]: (85.4%)
means CFU/block ± standard deviation [6]: 48 ± 44.2 CFU/block
percentage reduction compared to control [6]: (89.2%)
means CFU/block ± standard deviation [7]: 19.8 ± 6.8 CFU/block
percentage reduction compared to control [7]: (95.0%)
means CFU/block ± standard deviation [8]: 26.8 ± 20.1 CFU/block
percentage reduction compared to control [8]: (93.2%)
means CFU/block ± standard deviation [9]: 2.5 ± 2.9 CFU/block
percentage reduction compared to control [9]: (97.7%)
means CFU/block ± standard deviation [10]: 2.3 ± 3.4 CFU/block
percentage reduction compared to control [10]: (97.8%)
means CFU/block ± standard deviation [11]: 25.9 ± 13.8 CFU/block
percentage reduction compared to control [11]: (94.3%)
means CFU/block ± standard deviation [12]: 31.7 ± 25.1 CFU/block
percentage reduction compared to control [12]: (93.1%)
means CFU/block ± standard deviation [13]: 20.8 ± 13.8 CFU/block
percentage reduction compared to control [13]: (89.8%)
means CFU/block ± standard deviation [14]: 10.3 ± 7.8 CFU/block
percentage reduction compared to control [14]: (95.0%)
means CFU/block ± standard deviation [15]: 14 ± 11.4 CFU/block
percentage reduction compared to control [15]: (80.1%)
means CFU/block ± standard deviation [16]: 7.4 ± 4.0 CFU/block
percentage reduction compared to control [16]: (89.9%)
means CFU/block ± standard deviation [17]: 12.3 ± 8.4 CFU/block
percentage reduction compared to control [17]: (73.8%)
means CFU/block ± standard deviation [18]: 6 ± 4.2 CFU/block
percentage reduction compared to control [18]: (87.2%)
means CFU/block ± standard deviation [19]: 63.7 ± 45.1 CFU/block
percentage reduction compared to control [19]: (80.6%)
means CFU/block ± standard deviation [20]: 37.9 ± 14.3 CFU/block
percentage reduction compared to control [20]: (88.5%)
means CFU/block ± standard deviation [21]: 45.8 ± 19.2 CFU/block
percentage reduction compared to control [21]: (85.8%)
means CFU/block ± standard deviation [22]: 14.6 ± 12.5 CFU/block
percentage reduction compared to control [22]: (95.5%)
means CFU/block ± standard deviation (trial J, 3rd line, 5% biocide, inoculum 1.37 × 10^5, contact time 5 minutes): 37.4 ± 15.8 CFU/block
means CFU/block ± standard deviation (trial J, 3rd line, 10% biocide, inoculum 1.37 × 10^5, contact time 5 minutes): 29.7 ± 25.1 CFU/block
means CFU/block ± standard deviation [23]: 7.7 ± 3.0 CFU/block
percentage reduction compared to control [23]: (90.7%)
means CFU/block ± standard deviation [24]: 4.9 ± 5.8 CFU/block
percentage reduction compared to control [24]: (94.1%)
means CFU/block ± standard deviation [25]: 12.0 ± 9.4 CFU/block
percentage reduction compared to control [25]: (77.3%)
means CFU/block ± standard deviation [26]: 9.3 ± 5.4 CFU/block
percentage reduction compared to control [26]: (82.4%)
means CFU/block ± standard deviation [27]: 0.17 ± 0.41 CFU/block
percentage reduction compared to control [27]: (98.1%)
means CFU/block ± standard deviation [28]: 0 ± 0 CFU/block
percentage reduction compared to control [28]: (100%
means CFU/block ± standard deviation [29]: 1.3 ± 1.3 CFU/block
percentage reduction compared to control [29]: (88.9%)
means CFU/block ± standard deviation [30]: 0.67 ± 0.71 CFU/block
percentage reduction compared to control [30]: (94.3%)
means CFU/block ± standard deviation [31]: 3.3 ± 2.4 CFU/block
percentage reduction compared to control [31]: (60.2%
means CFU/block ± standard deviation [32]: 1.6 ± 1.8 CFU/block
percentage reduction compared to control [32]: (80.7%)
means CFU/block ± standard deviation [33]: 3.3 ± 2.1 CFU/block
percentage reduction compared to control [33]: (82.4%)
means CFU/block ± standard deviation [34]: 3.3 ± 2.4 CFU/block
percentage reduction compared to control [34]: (82.4%)
means CFU/block ± standard deviation [35]: 17.8 ± 4.8 CFU/block
percentage reduction compared to control [35]: (88.2%)
means CFU/block ± standard deviation [36]: 6.2 ± 5.8 CFU/block
percentage reduction compared to control [36]: (95.9%)
means CFU/block ± standard deviation [37]: 20.7 ± 6.1 CFU/block
percentage reduction compared to control [37]: (86.5%)
means CFU/block ± standard deviation [38]: 15.9 ± 6.7 CFU/block
percentage reduction compared to control [38]: (89.6%)
more effective reductions of the bacterium on newer blocks than on old blocks (trials J-N, new versus old blocks): 5-10%
